Test results published in publication PMC11062899, “De novo development of small cyclic peptides that are orally bioavailable” (Nature Chemical Biology, 2023).
Several values for one entry are separate records, joined by “and”; a condition that tells them apart may be missing. Identical values can stand only once. One block for each compound: values may come before it.

Legend:
porcine pepsin = molecular target: T1, porcine pepsin (Sus scrofa, UniProt P00791); assay: Peptide stability in simulated gastric fluid (SGF); type: in vitro ADME; settings: for SGF stability, Residual peptide Average / SGF stability, Residual peptide: after 8 h vs 0 h (TIC); for SGF stability, Residual peptide Average: average of R1-R3; for SGF stability, Residual peptide: single replicates R1-R3; for remaining at 8 h: simulated gi fluid, 37 °C, pH 1.2, read-out: Proteolytic stability: SGF (8 h) % remaining
T1 construct: 0.32 g of porcine pepsin (Sigma-Aldrich, P7125) was dissolved under gentle agitation; purchased Sigma-Aldrich P7125
Procedure, shortened: (§1)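 Peptide from a 1 mM DMSO stock was added to fluid pre-warmed at 37 °C. SGF was pH 1.2 NaCl with porcine pepsin (0.32 g per 100 ml), and SIF was pH 6.8 potassium phosphate with porcine pancreatin (1 g per 100 ml). Supernatant peptide was quantified by LC–MS, with residual expressed as T1/T0.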

rat α-thrombin = molecular target: T2, rat α-thrombin (Rattus norvegicus, UniProt P18292); assay: Protease inhibition, Ki for rat α-thrombin (fluorogenic substrate Z-Gly-Gly-Arg-AMC); type: biochemical; settings: replicates R1-R3
T2 construct: rat α-thrombin (Molecular Innovations) were used at final concentrations of 2 nM and 3 nM; purchased Molecular Innovations
Procedure, shortened: (§2)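 Ki derived through Cheng–Prusoff from IC50s (four-parameter logistic fit) against activity of peptide-free controls. Product fluorescence was read every 3 min over 30 min at 25 °C, substrate Z-Gly-Gly-Arg-AMC at 50 μM. Enzyme was 2 nM human or 3 nM rat α-thrombin, pH 7.4 buffer.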

[1] = Passive artificial membrane permeability (PAMPA); settings: for PAMPA permeability: % permeability: 50 μM, 12–18 h, acceptor concentration relative to equilibrium; for Papp at 50 μM / Permeability% Average / Permeability% R1 / Permeability% R3: PAMPA; for Papp at 50 μM: pH 7.4; for Permeability% Average: average of R1-R3; for Permeability% R1: replicate R1; for Permeability% R1 / Permeability% R3: TIC of top well sample relative to sample at theoretical equilibrium; for Permeability% R3: replicate R3
[2] = Metabolic stability in rat liver microsomes (RLMs); settings: rat, microsomes
[3] = Peptide stability in simulated intestinal fluid (SIF); type: in vitro ADME, porcine; settings: simulated gi fluid; 8 h, 37 °C, pH 6.8; read-out: Proteolytic stability: SIF (8 h) % remaining
Procedure, shortened: as §1

porcine pancreatin = assay: as above; type: in vitro ADME; settings: after 8 h vs 0 h (TIC); for SIF stability, Residual peptide Average: average of R1-R3
Procedure, shortened: as §1

human α-thrombin = human α-thrombin (Homo sapiens, UniProt P00734); assay: Protease inhibition, Ki for human α-thrombin (fluorogenic substrate Z-Gly-Gly-Arg-AMC); type: biochemical; settings: replicates R1-R3
Procedure, shortened: as §2

[4] = peptide 1.33E+02 uM, slope of proteolytic substrate cleavage over time
[5] = CL (ul/min/mg protein) R1, RLM CL, replicate R1
[6] = CL (ul/min/mg protein) R2, RLM CL, replicate R2
[7] = CL (ul/min/mg protein) R3, RLM CL, replicate R3
[8] = Half Life (min) R2, RLM metabolic stability, replicate R2, 0-60 min
[9] = Half Life (min) R3, RLM metabolic stability, replicate R3, 0-60 min
[10] = Metabolic stability: RLM CL (ul/min/mg), RLMs, mean and SD, three measurements

T1 sequence (P00791 60-385): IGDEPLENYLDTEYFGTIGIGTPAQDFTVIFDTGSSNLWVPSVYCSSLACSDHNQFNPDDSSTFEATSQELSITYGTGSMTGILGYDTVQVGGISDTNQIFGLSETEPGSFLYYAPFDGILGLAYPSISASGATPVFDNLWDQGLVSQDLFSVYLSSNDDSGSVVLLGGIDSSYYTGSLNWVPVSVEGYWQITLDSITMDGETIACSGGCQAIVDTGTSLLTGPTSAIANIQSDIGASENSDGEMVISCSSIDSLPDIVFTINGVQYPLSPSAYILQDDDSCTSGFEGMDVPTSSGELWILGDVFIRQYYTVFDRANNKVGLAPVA

SGF stability, Residual peptide Average (porcine pepsin): 94.69
SGF stability, Residual peptide (porcine pepsin): 92.56 and 99.47 and 92.05
remaining at 8 h (porcine pepsin): 95 ± 4%
Rat alpha thrombin inhibition, slope normalized to DMSO (rat α-thrombin; [4]): 43.4 and 70.6
Rat alpha thrombin inhibition, slope normalized to DMSO (rat α-thrombin; peptide 1.67E+01 uM): 56.7 and 58.6
Rat alpha thrombin inhibition, slope normalized to DMSO (rat α-thrombin; peptide 2.08E+00 uM): 84.9 and 85.4 and 90.4
Rat alpha thrombin inhibition, slope normalized to DMSO (rat α-thrombin; peptide 3.33E+01 uM): 53.0 and 50.7 and 58.4
Rat alpha thrombin inhibition, slope normalized to DMSO (rat α-thrombin; peptide 4.17E+00 uM): 73.8 and 75.0 and 69.4
Rat alpha thrombin inhibition, slope normalized to DMSO (rat α-thrombin; peptide 6.67E+01 uM): 39.7 and 48.9 and 63.6
Rat alpha thrombin inhibition, slope normalized to DMSO (rat α-thrombin; peptide 8.33E+00 uM): 59.4 and 61.3 and 72.8
PAMPA permeability: % permeability [1]: 5.7 ± 1.3%
Papp at 50 μM [1]: 0.38 ×10⁻⁶ cm/s
Permeability% Average [1]: 5.7%
Permeability% R1 [1]: 7.10%
Permeability% R3 [1]: 4.56%
microsomal CLint [2, 5]: 13.1 µL/min/mg
microsomal CLint [2, 6]: 42.3 µL/min/mg
microsomal CLint [2, 7]: 68.3 µL/min/mg
half-life [2, 8]: 32.8 min
half-life [2, 9]: 20.3 min
half-life ([2]; Metabolic stability: Half life T1/2 (min), RLMs, mean and SD, three measurements): 53 ± 38 min
microsomal CLint [2, 10]: 41 ± 23 µL/min/mg
remaining at 8 h [3]: 62 ± 15%
SIF stability, Residual peptide Average (porcine pancreatin): 62.00
SIF stability, Residual peptide (porcine pancreatin; single replicates R1-R3): 68.18 and 45.06 and 72.76
Human alpha thrombin inhibition, slope normalized to DMSO (human α-thrombin; peptide 1.02E-03 uM): 98.0 and 91.0 and 96.2
Human alpha thrombin inhibition, slope normalized to DMSO (human α-thrombin; peptide 1.04E+00 uM): 90.3 and 89.1 and 92.4
Human alpha thrombin inhibition, slope normalized to DMSO (human α-thrombin; peptide 1.27E-04 uM): 96.9 and 100.1 and 95.3
Human alpha thrombin inhibition, slope normalized to DMSO (human α-thrombin; peptide 1.30E-01 uM): 95.8 and 125.1 and 96.3
Human alpha thrombin inhibition, slope normalized to DMSO (human α-thrombin; [4]): 74.4 and 73.1 and 82.6
Human alpha thrombin inhibition, slope normalized to DMSO (human α-thrombin; peptide 1.63E-02 uM): 97.3 and 90.7 and 96.5
Human alpha thrombin inhibition, slope normalized to DMSO (human α-thrombin; peptide 1.67E+01 uM): 83.1 and 82.1 and 94.4
Human alpha thrombin inhibition, slope normalized to DMSO (human α-thrombin; peptide 2.03E-03 uM): 96.1 and 96.3 and 98.7
Human alpha thrombin inhibition, slope normalized to DMSO (human α-thrombin; peptide 2.08E+00 uM): 89.8 and 84.9 and 90.4
Human alpha thrombin inhibition, slope normalized to DMSO (human α-thrombin; peptide 2.54E-04 uM): 98.3 and 94.9 and 77.9
Human alpha thrombin inhibition, slope normalized to DMSO (human α-thrombin; peptide 2.60E-01 uM): 93.9 and 90.6 and 94.3
Human alpha thrombin inhibition, slope normalized to DMSO (human α-thrombin; peptide 3.18E-05 uM): 98.5 and 92.5 and 100.2
Human alpha thrombin inhibition, slope normalized to DMSO (human α-thrombin; peptide 3.26E-02 uM): 95.9 and 95.8 and 99.6
Human alpha thrombin inhibition, slope normalized to DMSO (human α-thrombin; peptide 3.33E+01 uM): 78.3 and 75.1 and 78.9
Human alpha thrombin inhibition, slope normalized to DMSO (human α-thrombin; peptide 4.07E-03 uM): 94.7 and 93.4 and 96.1
Human alpha thrombin inhibition, slope normalized to DMSO (human α-thrombin; peptide 4.17E+00 uM): 83.3 and 83.5 and 89.8
Human alpha thrombin inhibition, slope normalized to DMSO (human α-thrombin; peptide 5.09E-04 uM): 93.5 and 91.5 and 93.7
Human alpha thrombin inhibition, slope normalized to DMSO (human α-thrombin; peptide 5.21E-01 uM): 92.8 and 90.2 and 92.1
Human alpha thrombin inhibition, slope normalized to DMSO (human α-thrombin; peptide 6.36E-05 uM): 97.2 and 93.5 and 90.4
Human alpha thrombin inhibition, slope normalized to DMSO (human α-thrombin; peptide 6.51E-02 uM): 99.6 and 94.9 and 95.6
Human alpha thrombin inhibition, slope normalized to DMSO (human α-thrombin; peptide 6.67E+01 uM): 77.2 and 75.7 and 77.5
Human alpha thrombin inhibition, slope normalized to DMSO (human α-thrombin; peptide 8.14E-03 uM): 97.4 and 94.0 and 99.7
Human alpha thrombin inhibition, slope normalized to DMSO (human α-thrombin; peptide 8.33E+00 uM): 84.1 and 83.5 and 81.2
Compound: CC(C)[C@@H]1NC(=O)[C@@H](NC(=O)c2ccc(Cl)s2)CNC(=O)CCSCc2cccc(n2)CSCCNC1=O [compound 19]

SGF stability, Residual peptide Average (porcine pepsin): 96.69
SGF stability, Residual peptide (porcine pepsin): 100.68 and 91.38 and 98.01
remaining at 8 h (porcine pepsin): 97 ± 5%
Rat alpha thrombin inhibition, slope normalized to DMSO (rat α-thrombin; [4]): 12.2 and 19.4 and 24.3
Rat alpha thrombin inhibition, slope normalized to DMSO (rat α-thrombin; peptide 1.67E+01 uM): 41.8 and 45.6 and 42.9
Rat alpha thrombin inhibition, slope normalized to DMSO (rat α-thrombin; peptide 2.08E+00 uM): 71.5 and 79.0 and 60.4
Rat alpha thrombin inhibition, slope normalized to DMSO (rat α-thrombin; peptide 3.33E+01 uM): 25.4 and 28.0 and 27.8
Rat alpha thrombin inhibition, slope normalized to DMSO (rat α-thrombin; peptide 4.17E+00 uM): 66.5 and 70.9 and 68.3
Rat alpha thrombin inhibition, slope normalized to DMSO (rat α-thrombin; peptide 6.67E+01 uM): 16.3 and 21.9 and 8.4
Rat alpha thrombin inhibition, slope normalized to DMSO (rat α-thrombin; peptide 8.33E+00 uM): 56.5 and 61.2 and 59.0
PAMPA permeability: % permeability [1]: 0.99 ± 0.28%
Papp at 50 μM [1]: 0.0646 ×10⁻⁶ cm/s
Permeability% Average [1]: 1.0%
Permeability% R1 [1]: 1.25%
Permeability% R3 [1]: 1.03%
microsomal CLint [2, 5]: 29.5 µL/min/mg
microsomal CLint [2, 6]: 24 µL/min/mg
microsomal CLint [2, 7]: 26.2 µL/min/mg
half-life ([2]; Half Life (min) R1, RLM metabolic stability, replicate R1, 0-60 min): 46.9 min
half-life [2, 8]: 57.7 min
half-life [2, 9]: 53 min
microsomal CLint [2, 10]: 27 ± 2 µL/min/mg
remaining at 8 h [3]: 93 ± 13%
SIF stability, Residual peptide Average (porcine pancreatin): 92.33
Human alpha thrombin inhibition, slope normalized to DMSO (human α-thrombin; peptide 1.02E-03 uM): 98.9 and 95.1 and 89.8
Human alpha thrombin inhibition, slope normalized to DMSO (human α-thrombin; peptide 1.04E+00 uM): 90.6 and 90.5 and 80.1
Human alpha thrombin inhibition, slope normalized to DMSO (human α-thrombin; peptide 1.27E-04 uM): 100.0 and 98.9 and 93.2
Human alpha thrombin inhibition, slope normalized to DMSO (human α-thrombin; peptide 1.30E-01 uM): 69.5 and 98.5 and 88.7
Human alpha thrombin inhibition, slope normalized to DMSO (human α-thrombin; [4]): 42.6 and 48.7 and 48.9
Human alpha thrombin inhibition, slope normalized to DMSO (human α-thrombin; peptide 1.63E-02 uM): 88.4 and 95.2 and 91.8
Human alpha thrombin inhibition, slope normalized to DMSO (human α-thrombin; peptide 1.67E+01 uM): 73.5 and 78.5 and 58.5
Human alpha thrombin inhibition, slope normalized to DMSO (human α-thrombin; peptide 2.03E-03 uM): 99.2 and 96.7 and 91.4
Human alpha thrombin inhibition, slope normalized to DMSO (human α-thrombin; peptide 2.08E+00 uM): 75.3 and 92.4 and 77.6
Human alpha thrombin inhibition, slope normalized to DMSO (human α-thrombin; peptide 2.54E-04 uM): 99.2 and 99.7 and 92.0
Human alpha thrombin inhibition, slope normalized to DMSO (human α-thrombin; peptide 2.60E-01 uM): 120.3 and 99.5 and 85.9
Human alpha thrombin inhibition, slope normalized to DMSO (human α-thrombin; peptide 3.18E-05 uM): 87.6 and 101.9 and 93.6
Human alpha thrombin inhibition, slope normalized to DMSO (human α-thrombin; peptide 3.26E-02 uM): 82.7 and 95.9 and 92.3
Human alpha thrombin inhibition, slope normalized to DMSO (human α-thrombin; peptide 3.33E+01 uM): 52.1 and 61.8 and 43.1
Human alpha thrombin inhibition, slope normalized to DMSO (human α-thrombin; peptide 4.07E-03 uM): 96.4 and 99.1 and 90.2
Human alpha thrombin inhibition, slope normalized to DMSO (human α-thrombin; peptide 4.17E+00 uM): 69.9 and 89.4 and 83.9
Human alpha thrombin inhibition, slope normalized to DMSO (human α-thrombin; peptide 5.09E-04 uM): 96.6 and 98.5 and 95.0
Human alpha thrombin inhibition, slope normalized to DMSO (human α-thrombin; peptide 5.21E-01 uM): 80.4 and 93.9 and 89.5
Human alpha thrombin inhibition, slope normalized to DMSO (human α-thrombin; peptide 6.36E-05 uM): 91.9 and 97.1 and 90.0
Human alpha thrombin inhibition, slope normalized to DMSO (human α-thrombin; peptide 6.51E-02 uM): 80.1 and 98.2 and 90.6
Human alpha thrombin inhibition, slope normalized to DMSO (human α-thrombin; peptide 6.67E+01 uM): 54.5 and 43.3 and 24.5
Human alpha thrombin inhibition, slope normalized to DMSO (human α-thrombin; peptide 8.14E-03 uM): 89.1 and 102.0 and 83.1
Human alpha thrombin inhibition, slope normalized to DMSO (human α-thrombin; peptide 8.33E+00 uM): 94.4 and 79.6 and 74.6
Compound: NC(=O)NCCC[C@@H]1NC(=O)[C@@H](NC(=O)c2ccc(Cl)s2)CNC(=O)CCSCc2cccc(n2)CSCCNC1=O [compound 20]
